Assay results reported in PubChem BioAssay (NCI).
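Cells were grown in 96-well plates and exposed to each compound for 48 hours at five concentrations; endpoints were interpolated linearly between bracketing concentrations, or set to the highest concentration if not reached. The concentration for full growth arrest is given as TGI.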

Assays:
Assay in all cases: NCI-60 cell line screen, 48 h
SK-MEL-2 melanoma = system: SK-MEL-2 melanoma
SK-OV-3 ovarian = system: SK-OV-3 ovarian
NCI-H23 lung = system: NCI-H23 lung
K-562 leukemia = system: K-562 leukemia
T-47D breast = system: T-47D breast
IGROV1 ovarian = system: IGROV1 ovarian
HT29 colon = system: HT29 colon
NCI-H522 lung = system: NCI-H522 lung
MOLT-4 leukemia = system: MOLT-4 leukemia
UACC-257 melanoma = system: UACC-257 melanoma
MDA-MB-435 = system: MDA-MB-435
BT-549 breast = system: BT-549 breast
ACHN renal = system: ACHN renal
HS 578T breast = system: HS 578T breast
A549 NSCLC = system: A549 NSCLC
MDA-MB-231 breast = system: MDA-MB-231 breast
HOP-92 NSCLC = system: HOP-92 NSCLC
HCT-15 colon = system: HCT-15 colon
HCC-2998 colon = system: HCC-2998 colon
HCT-116 colon = system: HCT-116 colon
DU-145 prostate = system: DU-145 prostate
OVCAR-4 ovarian = system: OVCAR-4 ovarian
SF-295 CNS = system: SF-295 CNS
786-0 renal = system: 786-0 renal
NCI-H460 lung = system: NCI-H460 lung
SR leukemia = system: SR leukemia
UO-31 renal = system: UO-31 renal
SF-268 CNS = system: SF-268 CNS
OVCAR-5 ovarian = system: OVCAR-5 ovarian
MDA-N = system: MDA-N
KM12 colon = system: KM12 colon
HL-60(TB) leukemia = system: HL-60(TB) leukemia
OVCAR-8 ovarian = system: OVCAR-8 ovarian
NCI-H226 lung = system: NCI-H226 lung
TK-10 renal = system: TK-10 renal
OVCAR-3 ovarian = system: OVCAR-3 ovarian
CCRF-CEM leukemia = system: CCRF-CEM leukemia
MALME-3M melanoma = system: MALME-3M melanoma
U251 CNS = system: U251 CNS
SF-539 CNS = system: SF-539 CNS
SN12C renal = system: SN12C renal
EKVX NSCLC = system: EKVX NSCLC
M14 melanoma = system: M14 melanoma
SNB-19 CNS = system: SNB-19 CNS
HOP-62 NSCLC = system: HOP-62 NSCLC
A498 renal = system: A498 renal
RXF 393 renal = system: RXF 393 renal
SK-MEL-28 melanoma = system: SK-MEL-28 melanoma
CAKI-1 renal = system: CAKI-1 renal
MCF7 breast = system: MCF7 breast
UACC-62 melanoma = system: UACC-62 melanoma
SW-620 colon = system: SW-620 colon
PC-3 prostate = system: PC-3 prostate
SNB-75 CNS = system: SNB-75 CNS
SK-MEL-5 melanoma = system: SK-MEL-5 melanoma
COLO 205 colon = system: COLO 205 colon

## CCOC(=O)c1cc(-c2ccc(Cl)cc2)c([N+](=O)[O-])n1C
SK-MEL-2 melanoma
  TGI: > 10 µM
SK-OV-3 ovarian
  TGI: > 10 µM
NCI-H23 lung
  TGI: > 10 µM
K-562 leukemia
  TGI: > 10 µM
T-47D breast
  TGI: 6.45 µM
IGROV1 ovarian
  TGI: > 10 µM
HT29 colon
  TGI: > 10 µM
NCI-H522 lung
  TGI: > 10 µM
MOLT-4 leukemia
  TGI: > 10 µM
UACC-257 melanoma
  TGI: > 10 µM
MDA-MB-435
  TGI: > 10 µM
BT-549 breast
  TGI: > 10 µM
ACHN renal
  TGI: > 10 µM
HS 578T breast
  TGI: > 10 µM
A549 NSCLC
  TGI: > 10 µM
MDA-MB-231 breast
  TGI: 5.8 µM
HOP-92 NSCLC
  TGI: > 10 µM
HCT-15 colon
  TGI: > 10 µM
HCC-2998 colon
  TGI: > 10 µM
HCT-116 colon
  TGI: > 10 µM
DU-145 prostate
  TGI: > 10 µM
OVCAR-4 ovarian
  TGI: > 10 µM
SF-295 CNS
  TGI: > 10 µM
786-0 renal
  TGI: > 10 µM
NCI-H460 lung
  TGI: > 10 µM
SR leukemia
  TGI: > 10 µM
UO-31 renal
  TGI: > 10 µM
SF-268 CNS
  TGI: > 10 µM
OVCAR-5 ovarian
  TGI: > 10 µM
MDA-N
  TGI: > 10 µM
KM12 colon
  TGI: > 10 µM
HL-60(TB) leukemia
  TGI: > 10 µM
OVCAR-8 ovarian
  TGI: > 10 µM
NCI-H226 lung
  TGI: > 10 µM
TK-10 renal
  TGI: > 10 µM
OVCAR-3 ovarian
  TGI: > 10 µM
CCRF-CEM leukemia
  TGI: > 10 µM
MALME-3M melanoma
  TGI: > 10 µM
U251 CNS
  TGI: > 10 µM
SF-539 CNS
  TGI: > 10 µM
SN12C renal
  TGI: > 10 µM
EKVX NSCLC
  TGI: > 10 µM
M14 melanoma
  TGI: > 10 µM
SNB-19 CNS
  TGI: > 10 µM

## C[C@]12CCC(=O)C=C1CC[C@@H]1C2CC[C@]2(C)Nc3c(ncn3-c3ccc(F)cc3)CC12 (stereo partly drawn)
SK-OV-3 ovarian
  TGI: > 100 µM
NCI-H23 lung
  TGI: > 100 µM
HOP-62 NSCLC
  TGI: > 100 µM
K-562 leukemia
  TGI: 69 µM
T-47D breast
  TGI: 88.7 µM
IGROV1 ovarian
  TGI: > 100 µM
A498 renal
  TGI: > 100 µM
HT29 colon
  TGI: > 100 µM
NCI-H522 lung
  TGI: 55.1 µM
MOLT-4 leukemia
  TGI: 90.8 µM
UACC-257 melanoma
  TGI: 66.2 µM
MDA-MB-435
  TGI: 42.5 µM
RXF 393 renal
  TGI: 30.6 µM
SK-MEL-28 melanoma
  TGI: > 100 µM
BT-549 breast
  TGI: 59.8 µM
ACHN renal
  TGI: > 100 µM
CAKI-1 renal
  TGI: > 100 µM
HS 578T breast
  TGI: 71 µM
A549 NSCLC
  TGI: > 100 µM
MDA-MB-231 breast
  TGI: > 100 µM
HOP-92 NSCLC
  TGI: > 100 µM
MCF7 breast
  TGI: 74 µM
HCC-2998 colon
  TGI: 88.8 µM
UACC-62 melanoma
  TGI: 54.4 µM
HCT-116 colon
  TGI: 32.8 µM
DU-145 prostate
  TGI: > 100 µM
OVCAR-4 ovarian
  TGI: > 100 µM
SF-295 CNS
  TGI: 45.3 µM
786-0 renal
  TGI: > 100 µM
NCI-H460 lung
  TGI: 57.4 µM
SW-620 colon
  TGI: > 100 µM
PC-3 prostate
  TGI: > 100 µM
SR leukemia
  TGI: 29.9 µM
UO-31 renal
  TGI: > 100 µM
SF-268 CNS
  TGI: > 100 µM
SNB-75 CNS
  TGI: 77.4 µM
OVCAR-5 ovarian
  TGI: > 100 µM
MDA-N
  TGI: 42.8 µM
KM12 colon
  TGI: 85.9 µM
SK-MEL-5 melanoma
  TGI: 29.7 µM
HL-60(TB) leukemia
  TGI: > 100 µM
OVCAR-8 ovarian
  TGI: > 100 µM
NCI-H226 lung
  TGI: > 100 µM
TK-10 renal
  TGI: > 100 µM
OVCAR-3 ovarian
  TGI: > 100 µM
CCRF-CEM leukemia
  TGI: 82.6 µM
MALME-3M melanoma
  TGI: 70.4 µM
COLO 205 colon
  TGI: 38.4 µM
U251 CNS
  TGI: 95.9 µM
SF-539 CNS
  TGI: 34.3 µM
SN12C renal
  TGI: > 100 µM
EKVX NSCLC
  TGI: > 100 µM
M14 melanoma
  TGI: > 100 µM
SNB-19 CNS
  TGI: > 100 µM
